Source: the supplement of paper PMC10307832

Assays:
Experiment in all cases: relative viability (nuclei count vs DMSO), 5 days (fraction); higher = more cells survive
Fedratinib + Trametinib = compound: Cc1cnc(Nc2ccc(OCCN3CCCC3)cc2)nc1Nc1cccc(S(=O)(=O)NC(C)(C)C)c1 [Fedratinib] + CC(=O)Nc1cccc(-n2c(=O)n(C3CC3)c(=O)c3c(Nc4ccc(I)cc4F)n(C)c(=O)c(C)c32)c1 [Trametinib] (partner 0.02 µM)
Summary of the method: (§1)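 Medians of duplicate plates are given as relative viability. That measure is the nuclei count in treated wells divided by the count in vehicle wells. Counts were taken on 4× images of lung cancer cell lines in 1536-well plates, 5 days after pin-tool dosing the day after seeding with one drug alone or a fixed anchor-drug dose plus five library-drug doses (not always all listed) in √10 steps.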

Fedratinib + AZD7762 = compound: Cc1cnc(Nc2ccc(OCCN3CCCC3)cc2)nc1Nc1cccc(S(=O)(=O)NC(C)(C)C)c1 [Fedratinib] + NC(=O)Nc1cc(-c2cccc(F)c2)sc1C(=O)N[C@H]1CCCNC1 [AZD7762] (partner 0.2 µM)
Summary of the method: as §1

GW-2580 + Pictilisib = compound: COC1=CC=C(C=C1)COC2=C(C=C(C=C2)CC3=CN=C(N=C3N)N)OC [GW-2580] + CS(=O)(=O)N1CCN(Cc2cc3nc(-c4cccc5[nH]ncc45)nc(N4CCOCC4)c3s2)CC1 [Pictilisib] (partner 1 µM)
Summary of the method: as §1

GW-2580 + Vorinostat = compound: COC1=CC=C(C=C1)COC2=C(C=C(C=C2)CC3=CN=C(N=C3N)N)OC [GW-2580] + O=C(CCCCCCC(=O)Nc1ccccc1)NO [Vorinostat] (partner 1 µM)
Summary of the method: as §1

GW-2580 + Foretinib = compound: COC1=CC=C(C=C1)COC2=C(C=C(C=C2)CC3=CN=C(N=C3N)N)OC [GW-2580] + COc1cc2c(Oc3ccc(NC(=O)C4(C(=O)Nc5ccc(F)cc5)CC4)cc3F)ccnc2cc1OCCCN1CCOCC1 [Foretinib] (partner 0.25 µM)
Summary of the method: as §1

Cell Line	relative viability (Fedratinib + Trametinib; first compound 0.1 µM)	relative viability (Fedratinib + Trametinib; first compound 0.3162 µM)	relative viability (Fedratinib + Trametinib; first compound 1 µM)	relative viability (Fedratinib + AZD7762; first compound 0.1 µM)	relative viability (Fedratinib + AZD7762; first compound 0.3162 µM)	relative viability (Fedratinib + AZD7762; first compound 1 µM)	relative viability (GW-2580 + Pictilisib; first compound 0.08 µM)	relative viability (GW-2580 + Pictilisib; first compound 0.8 µM)	relative viability (GW-2580 + Pictilisib; first compound 2.53 µM)	relative viability (GW-2580 + Pictilisib; first compound 8 µM)	relative viability (GW-2580 + Vorinostat; first compound 0.08 µM)	relative viability (GW-2580 + Vorinostat; first compound 0.8 µM)	relative viability (GW-2580 + Vorinostat; first compound 2.53 µM)	relative viability (GW-2580 + Vorinostat; first compound 8 µM)	relative viability (GW-2580 + Foretinib; first compound 0.08 µM)	relative viability (GW-2580 + Foretinib; first compound 0.8 µM)	relative viability (GW-2580 + Foretinib; first compound 2.53 µM)	relative viability (GW-2580 + Foretinib; first compound 8 µM)
EKVX	0.333	0.293	0.363	0.738	0.815	0.656	0.395	0.448	0.395	0.5	0.711	0.951	0.808	0.679	0.971	1.11	0.726	0.779
EMC-BAC-2	0.931	0.939	0.978	1.16	1.1	0.912	0.577	0.618	0.452	0.519	0.418	0.733		0.376	1.13	1.11	1.04	0.865
EPLC-272H	0.275	0.281	0.278	0.222	0.24	0.168	0.254	0.36	0.267	0.262	0.381	0.409	0.301	0.334	0.73	0.766		0.605
H3255	0.506	0.69	0.706	0.809	0.858	0.794	0.534	0.471	0.419	0.464	0.802	0.875	0.75	0.771	0.859	0.835	0.742	0.829
HARA	0.521	0.907	0.546	0.429	0.28	0.23	0.459	0.513	0.344	0.405	0.561	0.601	0.548	0.588	1.06	0.849	1.03	0.676
HCC-15	0.393	0.365	0.357	1.19	1.28	1.2	0.79	0.824	0.653	0.677	0.866	1.07	0.787	0.75	1.06	1.09	1.01	0.958
HCC-44	1.15	1.01	1.11	0.995	1	1	0.688	0.717	0.582	0.619	1.13	1.08	1.19	1.1				
HCC-78	0.677	0.776	0.938	0.582	0.526	0.497	0.242	0.245	0.171	0.227	0.461	0.441	0.389	0.39	0.524	0.605	0.513	0.497
HCC-366	0.363	0.36	0.257	0.326	0.234	0.188	0.148	0.199	0.141	0.137	0.344	0.395	0.342	0.357	1	0.879	0.964	0.791
